Data: patent US6613786B2, “Thiophenyl triazol-3-one derivatives as smooth muscle relaxants” (Bristol-Myers Squibb Company, priority 2001, dated 2003)

What follows are compounds tested on rat bladder strip (assay: in vitro rat bladder strip model: inhibition of 10 μM carbachol induced contraction). Conditions: 1 h; test compound at 3 μM, one hour incubation; 10 μM carbachol induced contraction of rat bladder strip; percent inhibition over controls, normalized for vehicle effects.
Procedure: The ability of the compounds of the present invention to relax smooth muscle tissue was assessed by their ability to inhibit carbachol induced contractions in mammalian smooth muscle tissue. More specifically, the compounds of the present invention were screened in an in vitro rat bladder strip model to estimate their inhibitory effects on 10 μM carbachol induced contraction of the rat bladder strip according to the following experimental protocol.
1. Bladder Strip Tissue Preparation
Male rats were sacrificed by decapitation, the bladder removed and cleaned of connective tissue. Strips of bladder were then cut from the bladder body and placed in organ baths, suspended between a fixed hook and a force transducer, containing oxygenated physiological buffer maintained at 37° C.
The bladder strips were primed by stimulating them with 10 μM carbachol to evoke a contraction. The strips were then washed multiple times with fresh physiological buffer and allowed to fully relax. Following a period of recovery, the strips were again challenged with 10 μM carbachol to produce a contraction; this contractile response served as control response. The strips were again washed multiple times and allowed to fully relax (45 minutes). Test compound (3 μM) or vehicle was then added to each organ bath. Following a one hour incubation period, the strips were again stimulated with 10 μM carbachol and the contractile response measured.
The percent inhibition of the carbachol response by the test compounds was calculated by comparing control and post-compound carbachol responses normalized for vehicle effects. The percentage inhibition for each compound at 3 μM concentration is provided below in Table 1.

**Q.** Which inhibition at 3 µM does the source give for `O=c1[nH]c(-c2ccc(Cl)s2)nn1-c1cc(F)ccc1O` [Example 32, 5-(5-Chlorothiophen-2-yl)-2-(5-fluoro-2-hydroxyphenyl)-2,4-dihydro-[1,2,4]triazol-3-one] here?
**A.** Its inhibition at 3 µM is 35 to 50%.

**Q.** `CCCc1cc(Cl)cc(-n2nc(-c3cccs3)[nH]c2=O)c1O` [Example 30, 2-(5-Chloro-2-hydroxy-3-propylphenyl)-5-(thiophen-2-yl)-2,4-dihydro-[1,2,4]triazol-3-one] was tested. Which inhibition at 3 µM did it give?
**A.** Its inhibition at 3 µM is 20 to 35%.

**Q.** With `O=c1[nH]c(-c2ccc(Br)s2)nn1-c1cc(F)ccc1O` [Example 28, 5-(5-Bromothiophen-2-yl)-2-(5-fluoro-2-hydroxyphenyl)-2,4-dihydro-[1,2,4]triazol-3-one] as the compound, how does the inhibition at 3 µM read?
**A.** The inhibition at 3 µM was 20 to 35%.

**Q.** `O=c1[nH]c(-c2cc(Cl)c(Cl)s2)nn1-c1cc(Cl)ccc1O` [Example 10, 2-(5-Chloro-2-hydroxyphenyl)-5-(4,5-dichlorothiophen-2-yl)-2,4-dihydro-[1,2,4]triazol-3-one] was tested. Which inhibition at 3 µM did it give?
**A.** The inhibition at 3 µM was 20 to 35%.

**Q.** For `O=c1[nH]c(-c2cc(Br)c(Br)s2)nn1-c1cc(Cl)ccc1O` [Example 9, 2-(5-Chloro-2-hydroxyphenyl)-5-(4,5-dibromothiophen-2-yl)-2,4-dihydro-[1,2,4]triazol-3-one], which inhibition at 3 µM is on record?
**A.** The inhibition at 3 µM was 5 to 20%.

**Q.** `O=c1[nH]c(-c2ccc(Cl)s2)nn1-c1cc(Br)ccc1O` [Example 31, 2-(5-Bromo-2-hydroxyphenyl)-5-(5-chlorothiophen-2-yl)-2,4-dihydro-[1,2,4]triazol-3-one] was tested. Which inhibition at 3 µM did it give?
**A.** The inhibition at 3 µM was 20 to 35%.

**Q.** For `O=c1[nH]c(-c2cc(Br)c(Cl)s2)nn1-c1cc(Cl)ccc1O` [Example 11, 5-(4-Bromo-5-chlorothiophen-2-yl)-2-(5-chloro-2-hydroxyphenyl)-2,4-dihydro-[1,2,4]triazol-3-one], which inhibition at 3 µM is on record?
**A.** The inhibition at 3 µM was 20 to 35%.

**Q.** `O=c1[nH]c(-c2sc(Br)c(Br)c2Br)nn1-c1cc(Cl)ccc1O` [Example 15, 2-(5-Chloro-2-hydroxyphenyl)-5-(3,4,5-tribromothiophen-2-yl)-2,4-dihydro-[1,2,4]triazol-3-one] was tested. Which inhibition at 3 µM did it give?
**A.** The inhibition at 3 µM was 5 to 20%.

**Q.** Which inhibition at 3 µM does the source give for `O=c1[nH]c(-c2sc(Cl)c(Cl)c2Cl)nn1-c1cc(Cl)ccc1O` [Example 16, 2-(5-Chloro-2-hydroxyphenyl)-5-(3,4,5-trichlorothiophen-2-yl)-2,4-dihydro-[1,2,4]triazol-3-one] here?
**A.** Its inhibition at 3 µM is 20 to 35%.

**Q.** With `O=c1[nH]c(-c2ccc(Br)s2)nn1-c1cc(Cl)cc(Cl)c1O` [Example 23, 5-(5-Bromothiophen-2-yl)-2-(3,5-dichloro-2-hydroxyphenyl)-2,4-dihydro-[1,2,4]triazol-3-one] as the compound, how does the inhibition at 3 µM read?
**A.** Its inhibition at 3 µM is 20 to 35%.

**Q.** For `O=c1[nH]c(-c2sc(Br)cc2Br)nn1-c1cc(Cl)ccc1O` [Example 14, 2-(5-Chloro-2-hydroxyphenyl)-5-(3,5-dibromothiophen-2-yl)-2,4-dihydro-[1,2,4]triazol-3-one], which inhibition at 3 µM is on record?
**A.** The inhibition at 3 µM was 35 to 50%.

**Q.** For `O=c1[nH]c(-c2ccc(Br)s2)nn1-c1cc(C(F)(F)F)ccc1O` [Example 26, 5-(5-Bromothiophen-2-yl)-2-(2-hydroxy-5-trifluoromethylphenyl)-2,4-dihydro-[1,2,4]triazol-3-one], which inhibition at 3 µM is on record?
**A.** Its inhibition at 3 µM is 35 to 50%.

**Q.** With `O=c1[nH]c(-c2ccc(Br)s2)nn1-c1cc(Cl)cc(Br)c1O` [Example 21, 2-(3-Bromo-5-chloro-2-hydroxyphenyl)-5-(5-bromothiophen-2-yl)-2,4-dihydro-[1,2,4]triazol-3-one] as the compound, how does the inhibition at 3 µM read?
**A.** The inhibition at 3 µM was 20 to 35%.

**Q.** For `O=c1[nH]c(-c2ccc(Br)s2)nn1-c1cc(Cl)c(Br)cc1O` [Example 25, 2-(4-Bromo-5-chloro-2-hydroxyphenyl)-5-(5-bromothiophen-2-yl)-2,4-dihydro-[1,2,4]triazol-3-one], which inhibition at 3 µM is on record?
**A.** Its inhibition at 3 µM is 20 to 35%.

**Q.** `O=c1[nH]c(-c2sccc2Br)nn1-c1cc(Cl)ccc1O` [Example 6, 5-(3-Bromothiophen-2-yl)-2-(5-chloro-2-hydroxyphenyl)-2,4-dihydro-[1,2,4]triazol-3-one] was tested. Which inhibition at 3 µM did it give?
**A.** Its inhibition at 3 µM is 35 to 50%.

**Q.** `O=c1[nH]c(-c2cc(Br)sc2Br)nn1-c1cc(Cl)ccc1O` [Example 18, 2-(5-Chloro-2-hydroxyphenyl)-5-(2,5-dibromothiophen-3-yl)-2,4-dihydro-[1,2,4]triazol-3-one] was tested. Which inhibition at 3 µM did it give?
**A.** Its inhibition at 3 µM is 20 to 35%.

**Q.** For `O=c1[nH]c(-c2ccc(Br)s2)nn1-c1cc(Cl)ccc1O` [Example 1, 5-(5-Bromothiophen-2-yl)-2-(5-chloro-2-hydroxyphenyl)-2,4-dihydro-[1,2,4]triazol-3-one], which inhibition at 3 µM is on record?
**A.** Its inhibition at 3 µM is 35 to 50%.

**Q.** With `O=c1[nH]c(-c2ccc(Cl)s2)nn1-c1cc(Cl)ccc1O` [Example 2, 2-(5-Chloro-2-hydroxyphenyl)-5-(5-chlorothiophen-2-yl)-2,4-dihydro-[1,2,4]triazol-3-one] as the compound, how does the inhibition at 3 µM read?
**A.** Its inhibition at 3 µM is 35 to 50%.

**Q.** With `O=c1[nH]c(-c2cc(Cl)cs2)nn1-c1cc(Cl)ccc1O` [Example 5, 5-(4-Chlorothiophen-2-yl)-2-(5-chloro-2-hydroxyphenyl)-2,4-dihydro-[1,2,4]triazol-3-one] as the compound, how does the inhibition at 3 µM read?
**A.** The inhibition at 3 µM was 35 to 50%.

**Q.** With `O=c1[nH]c(-c2sccc2Cl)nn1-c1cc(Cl)ccc1O` [Example 7, 2-(5-Chloro-2-hydroxyphenyl)-5-(3-chlorothiophen-2-yl)-2,4-dihydro-[1,2,4]triazol-3-one] as the compound, how does the inhibition at 3 µM read?
**A.** The inhibition at 3 µM was 35 to 50%.

**Q.** Which inhibition at 3 µM does the source give for `O=c1[nH]c(-c2ccc(Br)s2)nn1-c1cc(Br)ccc1O` [Example 27, 2-(5-Bromo-2-hydroxyphenyl)-5-(5-bromothiophen-2-yl)-2,4-dihydro-[1,2,4]triazol-3-one] here?
**A.** The inhibition at 3 µM was 35 to 50%.

**Q.** Which inhibition at 3 µM does the source give for `Cc1sc(-c2nn(-c3cc(Cl)ccc3O)c(=O)[nH]2)cc1Br` [Example 17, 5-(4-Bromo-5-methylthiophen-2-yl)-2-(5-chloro-2-hydroxyphenyl)-2,4-dihydro-[1,2,4]triazol-3-one] here?
**A.** The inhibition at 3 µM was 20 to 35%.

**Q.** `O=c1[nH]c(-c2scc(Br)c2Br)nn1-c1cc(Cl)ccc1O` [Example 12, 2-(5-Chloro-2-hydroxyphenyl)-5-(3,4-dibromothiophen-2-yl)-2,4-dihydro-[1,2,4]triazol-3-one] was tested. Which inhibition at 3 µM did it give?
**A.** The inhibition at 3 µM was 20 to 35%.

**Q.** How did the inhibition at 3 µM turn out when `O=c1[nH]c(-c2cc(Cl)sc2Cl)nn1-c1cc(Cl)ccc1O` [Example 19, 2-(5-Chloro-2-hydroxyphenyl)-5-(2,5-dichlorothiophen-3-yl)-2,4-dihydro-[1,2,4]triazol-3-one] was run?
**A.** The inhibition at 3 µM was 35 to 50%.

**Q.** For `O=c1[nH]c(-c2ccc(I)s2)nn1-c1cc(Cl)ccc1O` [Example 3, 2-(5-Chloro-2-hydroxyphenyl)-5-(5-iodothiophen-2-yl)-2,4-dihydro-[1,2,4]triazol-3-one], which inhibition at 3 µM is on record?
**A.** The inhibition at 3 µM was 35 to 50%.

**Q.** How did the inhibition at 3 µM turn out when `CC=Cc1cc(Cl)cc(-n2nc(-c3ccc(Br)s3)[nH]c2=O)c1O` [Example 29, 5-(5-Bromothiophen-2-yl)-2-(5-chloro-2-hydroxy-3-(prop-1-en-1-yl)phenyl)-2,4-dihydro-[1,2,4]triazol-3-one] was run?
**A.** Its inhibition at 3 µM is 20 to 35%.

**Q.** For `Cc1cc(Cl)cc(-n2nc(-c3ccc(Br)s3)[nH]c2=O)c1O` [Example 22, 5-(5-Bromothiophen-2-yl)-2-(5-chloro-2-hydroxy-3-methylphenyl)-2,4-dihydro-[1,2,4]triazol-3-one], which inhibition at 3 µM is on record?
**A.** The inhibition at 3 µM was 20 to 35%.

**Q.** `C=CCc1cc(Cl)cc(-n2nc(-c3ccc(Br)s3)[nH]c2=O)c1O` [Example 20, 2-(3-Allyl-5-chloro-2-hydroxyphenyl)-5-(5-bromothiophen-2-yl)-2,4-dihydro-[1,2,4]triazol-3-one] was tested. Which inhibition at 3 µM did it give?
**A.** Its inhibition at 3 µM is 20 to 35%.

**Q.** With `Cc1cc(O)c(-n2nc(-c3ccc(Br)s3)[nH]c2=O)cc1Cl` [Example 24, 5-(5-Bromothiophen-2-yl)-2-(5-chloro-2-hydroxy-4-methylphenyl)-2,4-dihydro-[1,2,4]triazol-3-one] as the compound, how does the inhibition at 3 µM read?
**A.** The inhibition at 3 µM was 20 to 35%.

**Q.** For `O=c1[nH]c(-c2sccc2I)nn1-c1cc(Cl)ccc1O` [Example 8, 2-(5-Chloro-2-hydroxyphenyl)-5-(3-iodothiophen-2-yl)-2,4-dihydro-[1,2,4]triazol-3-one], which inhibition at 3 µM is on record?
**A.** Its inhibition at 3 µM is 20 to 35%.

**Q.** For `O=c1[nH]c(-c2cc(Br)cs2)nn1-c1cc(Cl)ccc1O` [Example 4, 5-(4-Bromothiophen-2-yl)-2-(5-chloro-2-hydroxyphenyl)-2,4-dihydro-[1,2,4]triazol-3-one], which inhibition at 3 µM is on record?
**A.** Its inhibition at 3 µM is 35 to 50%.

**Q.** `O=c1[nH]c(-c2scc(Cl)c2Cl)nn1-c1cc(Cl)ccc1O` [Example 13, 2-(5-Chloro-2-hydroxyphenyl)-5-(3,4-dichlorothiophen-2-yl)-2,4-dihydro-[1,2,4]triazol-3-one] was tested. Which inhibition at 3 µM did it give?
**A.** The inhibition at 3 µM was 35 to 50%.
